Here are results for 31 molecules from PMC8286840, “Identifying SARS-CoV-2 antiviral compounds by screening for small molecule inhibitors of Nsp3 papain-like protease” (Biochemical Journal, 2021).

Where a name gives a salt, the structure may show the parent alone. Read-outs that look alike come from different tables or passages of the source. Where no end group is shown, it is not given here.

The target in experiment [1] is T1, SARS-CoV-2 PLpro (nsp3 1564–1878) (Severe acute respiratory syndrome coronavirus 2, UniProt P0DTD1). Description: biochemical. Also noted: FRET-quenched peptide (Pro3) cleavage by PLpro, 10 min pre-incubation, slope over 20 min, normalised to no-compound control. The note with it: high concentration screen, read-out: % of control remaining.
The target in experiment [2] is T1, SARS-CoV-2 PLpro (nsp3 1564–1878). In words: biochemical. Also noted: FRET-quenched peptide (Pro3) cleavage by PLpro, 10 min pre-incubation, slope over 20 min, normalised to no-compound control. The note with it: low concentration screen, read-out: % of control remaining.

For the molecule `CCC1=C[C@@H]2CN(C1)Cc1c([nH]c3ccccc13)[C@@](C(=O)OC)(c1cc3c(cc1OC)N(C)[C@H]1[C@@](O)(C(=O)OC)[C@H](OC(C)=O)[C@]4(CC)C=CCN5CC[C@]31[C@@H]54)C2` [Vinorelbine], the results for the remaining activity at 3.75 µM in experiment [1] (Well no.=2029) and in experiment [1] (Well no.=3763) were 108% and 100%, respectively. The remaining activity at 1.25 µM stood at 104% in experiment [2] (Well no.=2029) and 96.8% in experiment [2] (Well no.=3763).
For the molecule `NC[C@H]1CC[C@H](C(=O)O)CC1` [Tranexamic acid], in experiment [1] (Well no.=1816), the remaining activity at 3.75 µM is 99.8%. In addition, the remaining activity at 1.25 µM in experiment [2] (Well no.=1816) was determined as 97.3%.
`Oc1ccc(Cn2cc[nH]c2=S)cc1` [1-(4-Hydroxybenzyl)imidazole-2-thiol]: the remaining activity at 3.75 µM in experiment [1] (Well no.=516) stood at 105%. For the same molecule, the remaining activity at 1.25 µM in experiment [2] (Well no.=516) worked out at 104%.
As to `CC(C)(O)CNc1nc(Nc2ccnc(C(F)(F)F)c2)nc(-c2cccc(C(F)(F)F)n2)n1` [Enasidenib (AG-221)], the remaining activity at 3.75 µM in experiment [1] (Well no.=8582) is 101%. Moreover, the remaining activity at 1.25 µM in experiment [2] (Well no.=8582) came out at 101%.
For `CC12CC3CC(C)(C1)CC(N)(C3)C2` [Memantine hydrochloride], the remaining activity at 3.75 µM in experiment [1] (Well no.=1083) was determined as 99.3%. The remaining activity at 1.25 µM in experiment [2] (Well no.=1083) turned out to be 97.8%.
In the case of `C[C@H]1O[C@@H](n2cc(F)c(=O)[nH]c2=O)[C@H](O)[C@@H]1O` [5-fluoro-5'-deoxyuridine], the remaining activity at 3.75 µM in experiment [1] (Well no.=663) worked out at 98.8%. Also, the remaining activity at 1.25 µM in experiment [2] (Well no.=663) came to 102%.
As for `CSc1ccc(/C=C2/C(C)=C(CC(=O)O)c3cc(F)ccc32)cc1` [Sulindac sulfide], the remaining activity at 3.75 µM in experiment [1] (Well no.=6089) is 93.8%. The remaining activity at 1.25 µM in experiment [2] (Well no.=6089) is 96.2%.
For `CC(C)C[C@H](O)C(=O)O` [(S)-Leucic acid], in experiment [1] (Well no.=6633), the remaining activity at 3.75 µM was found to be 109%. For the same molecule, the remaining activity at 1.25 µM in experiment [2] (Well no.=6633) is 108%.
Regarding `C[C@H]1[C@H](C)CC[C@]2(C(=O)O)CC[C@]3(C)C(=CC[C@@H]4[C@@]5(C)C[C@@H](O)[C@H](O)[C@@](C)(CO)[C@@H]5CC[C@]43C)[C@H]12` [Asiatic acid], the remaining activity at 3.75 µM in experiment [1] (Well no.=3509) came out at 103%. Also, the remaining activity at 1.25 µM in experiment [2] (Well no.=3509) amounted to 100%.
Consider `C[C@H](CCC(=O)O)[C@H]1CC[C@H]2[C@@H]3CC[C@@H]4C[C@H](O)CC[C@]4(C)[C@H]3C[C@H](O)[C@]12C` [Deoxycholic acid], for which the remaining activity at 3.75 µM was determined as 112% in experiment [1] (Well no.=6153) and 103% in experiment [1] (Well no.=8537). Further, the remaining activity at 1.25 µM in experiment [2] (Well no.=6153) stood at 107%; in experiment [2] (Well no.=8537) it was 102%.
Turning to `COc1cc(C(O)CN)ccc1O` (racemic), in experiment [1] (Well no.=1049), the remaining activity at 3.75 µM worked out at 96.1%. Further, in experiment [2] (Well no.=1049), the remaining activity at 1.25 µM turned out to be 96.5%.
On to `C[C@H](NC(=O)C(=O)Nc1ccccc1C(C)(C)C)C(=O)N[C@@H](CC(=O)O)C(=O)COc1c(F)c(F)cc(F)c1F` [Emricasan], for which the remaining activity at 3.75 µM in experiment [1] (Well no.=7118) turned out to be 95.9%. Further, in experiment [2] (Well no.=7118), the remaining activity at 1.25 µM came to 95.7%.
Take `CC1=NN(c2ccccc2)C(=O)C1` [MCI-186]: in experiment [1] (Well no.=3901), the remaining activity at 3.75 µM was determined as 103%. Also, the remaining activity at 1.25 µM in experiment [2] (Well no.=3901) was found to be 103%.
As for `O=C(O)c1ccc(-c2c[nH]c3ncc(-c4ccccc4)cc23)cc1C1CCCC1` [2-cyclopentyl-4-(5-phenyl-1H-pyrrolo[2,3-b]pyridin-3-yl)benzoic acid], the remaining activity at 3.75 µM in experiment [1] (Well no.=5864) stood at 94.4%. Further, the remaining activity at 1.25 µM in experiment [2] (Well no.=5864) stood at 93%.
`COc1ccc2c(c1OC)C(=O)O[C@@H]2[C@H]1c2c(cc3c(c2OC)OCO3)CCN1C` (racemic): the remaining activity at 3.75 µM in experiment [1] (Well no.=3446) is 90.7%. Also, in experiment [2] (Well no.=3446), the remaining activity at 1.25 µM worked out at 92.3%.
For `COc1ccc2c(c1OC)C(=O)O[C@@H]2[C@H]1c2c(cc3c(c2OC)OCO3)CCN1C` [Noscapine hydrchloride], the remaining activity at 3.75 µM in experiment [1] (Well no.=957) was found to be 95.4%. Besides, the remaining activity at 1.25 µM in experiment [2] (Well no.=957) was found to be 93%.
Consider `O=C1Nc2ccc(Cl)cc2[C@@](C#CC2CC2)(C(F)(F)F)O1` [Efavirenz], for which the remaining activity at 3.75 µM in experiment [1] (Well no.=2248) came to 101%. Also, the remaining activity at 1.25 µM in experiment [2] (Well no.=2248) came to 97.1%.
Regarding `Nc1cccc2c1C(=O)N(C1CCC(=O)NC1=O)C2=O` (stereo not drawn) [Pomalidomide], the remaining activity at 3.75 µM in experiment [1] (Well no.=4963) is 96.3%. Moreover, the remaining activity at 1.25 µM in experiment [2] (Well no.=4963) came to 100%.
In the case of `CC1(C)O[C@@H]2C[C@H]3[C@@H]4CCC5=CC(=O)C=C[C@]5(C)[C@@]4(F)[C@@H](O)C[C@]3(C)[C@]2(C(=O)CO)O1` [Triamcinolone (acetonide)], the remaining activity at 3.75 µM in experiment [1] (Well no.=6574) was found to be 108%. The remaining activity at 1.25 µM in experiment [2] (Well no.=6574) worked out at 105%.
Consider `CS(=N)(=O)CC[C@H](N)C(=O)O` (stereo partly drawn) [L-Methionine sulfoximine], for which the remaining activity at 3.75 µM in experiment [1] (Well no.=1120) was 99.8%. For the same molecule, the remaining activity at 1.25 µM in experiment [2] (Well no.=1120) is 96.3%.
As for `N[C@@H](Cc1ccc(O)c(I)c1)C(=O)O` [H-Tyr(3-I)-OH], the remaining activity at 3.75 µM in experiment [1] (Well no.=7019) stood at 99.6%. The remaining activity at 1.25 µM in experiment [2] (Well no.=7019) stood at 99.7%.
Turning to `Cc1c([C@H](C)[C@@H]2NC[C@@H](C)C[C@H]2O)ccc2c1C[C@H]1[C@H]2CC=C2C[C@@H](O)CC[C@@]21C` [Veratramine], the remaining activity at 3.75 µM in experiment [1] (Well no.=3280) was 102%. Further, the remaining activity at 1.25 µM in experiment [2] (Well no.=3280) was found to be 102%.
For `N[C@@H](Cn1ccc(=O)c(O)c1)C(=O)O` [L-Mimosine], in experiment [1] (Well no.=3819), the remaining activity at 3.75 µM was found to be 94.6%. Also, the remaining activity at 1.25 µM in experiment [2] (Well no.=3819) is 92.9%.
For the molecule `Cc1[nH]c2ccccc2c1CCNCc1ccc(/C=C/C(=O)NO)cc1` [Panobinostat (LBH589)], in experiment [1] (Well no.=4832), the remaining activity at 3.75 µM stood at 96.4%. Also, the remaining activity at 1.25 µM in experiment [2] (Well no.=4832) came to 94.6%.
`CN1[C@@H]2CC[C@H]1C[C@@H](OC(=O)C(CO)c1ccccc1)C2` (stereo partly drawn) [Atropine (sulfate monohydrate)]: the remaining activity at 3.75 µM in experiment [1] (Well no.=7677) is 94.5%. The remaining activity at 1.25 µM in experiment [2] (Well no.=7677) worked out at 93.8%.
For the molecule Ac-LKKTETQ [TB500], the remaining activity at 3.75 µM in experiment [1] (Well no.=7646) was 90.2%. In addition, the remaining activity at 1.25 µM in experiment [2] (Well no.=7646) is 92.9%.
Turning to `CCCCC/C=C\C[C@@H]1O[C@H]1C(O)/C=C\C/C=C\CCCC(=O)O` (stereo partly drawn) [Hepoxilin B3], the remaining activity at 3.75 µM in experiment [1] (Well no.=4341) turned out to be 96.6%. The remaining activity at 1.25 µM in experiment [2] (Well no.=4341) was found to be 97.9%.
Regarding `C=CCN1CC[C@]23CCCC[C@H]2[C@H]1Cc1ccc(O)cc13` [Levallorphan tartrate], the remaining activity at 3.75 µM in experiment [1] (Well no.=1012) was determined as 99.9%. Moreover, in experiment [2] (Well no.=1012), the remaining activity at 1.25 µM worked out at 99.1%.
Consider `Cc1cc(C(C)(C)C)c(O)c(C)c1CC1=NCCN1` [Oxymetazoline (hydrochloride)], for which, in experiment [1] (Well no.=7327), the remaining activity at 3.75 µM was 99.6%. The remaining activity at 1.25 µM in experiment [2] (Well no.=7327) was 102%.
In the case of `CC(N)c1cccc(Cl)c1Cl` (racemic), the remaining activity at 3.75 µM in experiment [1] (Well no.=734) turned out to be 94.8%. Moreover, the remaining activity at 1.25 µM in experiment [2] (Well no.=734) turned out to be 92.1%.
Turning to `Clc1ccccc1C(c1ccccc1)(c1ccccc1)n1ccnc1` [Clotrimazole], the remaining activity at 3.75 µM in experiment [1] (Well no.=372) came to 99.9%. Moreover, the remaining activity at 1.25 µM in experiment [2] (Well no.=372) stood at 97.9%.
